In ChEMBL document CHEMBL1146389, “Synthesis and evaluation of prodrugs for anti-angiogenic pyrrolylmethylidenyl oxindoles” (2007):

Experiments:
HUVEC [1] = assay: Inhibition of VEGF-stimulated angiogenesis in HUVECs; assay type: functional, cell-based; conditions: Homo sapiens
HUVEC [2] = assay: Inhibition of VEGF-stimulated angiogenesis in HUVECs at 1 uM relative to control; assay type: functional; conditions: Homo sapiens

| Compound | Activity (HUVEC [1]) | inhibition at 1 µM (HUVEC [2]) |
| --- | --- | --- |
| Cc1cc(C)c(/C=C2\C(=O)N(Cc3ccc([N+](=O)[O-])cc3)c3ccccc32)[nH]1 | Dose-dependent effect | – |
| Cc1cc(C)c(/C=C2\C(=O)Nc3ccccc32)[nH]1 [SEMAXANIB] | – | 94% |
